Measured values: US8835484B2, “Naphthocyanines for use as contrast agents” (Alamedics GmbH & Co. KG, priority 2010, dated 2014)

Key:
[1] = Solid cyanine dye stability comparison; format: physicochemical; conditions: storage
Description: Decomposition of the solid dye results in a red coloration of the solid and the solution. Carboxylic acid esters, especially methyl ester, are particularly sensitive in addition to the bromides.

[2] = Fluorescence quantum yield; format: physicochemical; conditions: CHCl3; Reference: S-13 with Φ=1.00
Description: IR spectra: Perkin Elmer Spectrum BX II, using a diamond anvil cell; UV/Vis spectra: Varian Cary 5000 and Bruins Omega 20; fluorescence spectra: Varian Eclispe; NMR spectroscopy: Varian Vnmrs 600 (600 MHz, 400 MHz, 200 MHz); mass spectrometry: Thermo Finnigan LQT FT.

[3] = test system: lens capsule; experiment: Dye tests on porcine eyes (lens capsule staining); parameters: key: +++: visually assessed very strong coloration; ++: good coloration; +: satisfactory coloration; −: weak or absent coloration; conditions: incubated, rinsed after one minute
Procedure: For the dye test, in each case 5 mg dye was dissolved in 500 μL ethanol and diluted to 2 mL with BSS Plus solution as the stock solution, and then correspondingly further diluted. As an alternative, one can prepare stock solutions of the dye by dissolving, for example, 5 mg dye in 1 mL distilled water, adding 7 mL BSS solution and then combining with 1 mL NaCl solution having an osmolality of 620 (approximately 2%) in order to restore the original osmolality of the BSS solution (308). This stock solution can be correspondingly further diluted with BSS solution as required. Enucleated porcine eyes were used having a post mortem time period of a few hours. To dye the lens capsule, the cornea was first removed. Thereafter, the iris was resected and the capsular support was severed. The lens with intact lens capsule was removed and placed in a bowl filled with BSS. The lenses were thereafter incubated with the dyes according to the invention at various concentrations and then rinsed after one minute. The dye pattern was photographically documented, whereby the coloration was assessed without additional illumination, and fluorescence was assessed with illumination (Xenon lamp, halogen lamp with typical endoillumination source and fiber optics). The lens capsule is a very good model for dyeing due to the fact that it is a basal membrane, as is the ILM of the retina. Both structures are important target structures in eye surgery.

Row | Molecule | Stability [1] | Fluorescence quantum yield [2] | coloration of lens capsule ([3]; dye concentration 0.0025%) | coloration of lens capsule ([3]; dye concentration 0.025%) | coloration of lens capsule ([3]; dye concentration 0.25%) | coloration of lens capsule ([3]; dye concentration 0.5%)
1 | 3,3′-Di-(5-bromodecyl)-1,1,1′,1′-tetramethyl-1H-dibenzo[e]indocarbocyanine bromide [Dye 3x] | No decomposition after 4 months | 0.10 |  |  |  | 
2 | CC1(C)C(/C=C/C=C2\N(CCC(=O)O)c3ccc4ccccc4c3C2(C)C)=[N+](CCC(=O)O)c2ccc3ccccc3c21.[Br-] [Dye 3a, 3,3′-Di-(2-carboxyethyl)-1,1,1′,1′-tetramethyl-1H-dibenzo[e]indocarbocyanine bromide] |  | 0.35 | − | + | ++ | ++
3 | CC1(C)C(=CC=CC2=[N+](CCCCC(=O)O)c3ccc4ccccc4c3C2(C)C)N(CCCCC(=O)O)c2ccc3ccccc3c21.[Br-] [Dye 3b, 3,3′-Di-(4-carboxybutyl)-1,1,1′,1′-tetramethyl-1H-dibenzo[e]indocarbocyanine bromide] |  | 0.49 |  |  |  | 
4 | CC1(C)C(=CC=CC2=[N+](CCCCCC(=O)O)c3ccc4ccccc4c3C2(C)C)N(CCCCCC(=O)O)c2ccc3ccccc3c21.[Br-] [Dye 3c, 3,3′-Di-(5-carboxypentyl)-1,1,1′,1′-tetramethyl-1H-dibenzo[e]indocarbocyanine bromide] |  | 0.50 | − | − | +++ | +++
5 | CC1(C)C(=CC=CC2=[N+](CCCCCCCC(=O)O)c3ccc4ccccc4c3C2(C)C)N(CCCCCCCC(=O)O)c2ccc3ccccc3c21.[Br-] [Dye 3d, 3,3′-Di-(7-carboxyheptyl)-1,1,1′,1′-tetramethyl-1H-dibenzo[e]indocarbocyanine bromide] |  | 0.43 | − | − | + | +++
6 | CC1(C)C(=CC=CC2=[N+](CCCCCCCCCC(=O)O)c3ccc4ccccc4c3C2(C)C)N(CCCCCCCCCC(=O)O)c2ccc3ccccc3c21.[Br-] [Dye 3e, 3,3′-Di-(9-carboxynonyl)-1,1,1′,1′-tetramethyl-1H-dibenzo[e]indocarbocyanine bromide] |  | 0.59 | − | − | ++ | ++
7 | CC1(C)C(=CC=CC2=[N+](CCCCCCCCCCC(=O)O)c3ccc4ccccc4c3C2(C)C)N(CCCCCCCCCCC(=O)O)c2ccc3ccccc3c21.[Br-] [Dye 3f, 3,3′-Di-(10-carboxydecyl)-1,1,1′,1′-tetramethyl-1H-dibenzo[e]indocarbocyanine bromide] |  | 0.33 |  |  |  | 
8 | CC1(C)C(=CC=CC2=[N+](CCCCCCCCCCCC(=O)O)c3ccc4ccccc4c3C2(C)C)N(CCCCCCCCCCCC(=O)O)c2ccc3ccccc3c21.[Br-] [Dye 3g, 3,3′-Di-(11-carboxyundecyl)-1,1,1′,1′-tetramethyl-1H-dibenzo[e]indocarbocyanine bromide] |  | 0.35 | − | − | ++ | ++
9 | COC(=O)CCN1C(=CC=CC2=[N+](CCC(=O)OC)c3ccc4ccccc4c3C2(C)C)C(C)(C)c2c1ccc1ccccc21.[Br-] [Dye 3h, 3,3′-Di-(2-methoxycarbonylethyl)-1,1,1′,1′-tetramethyl-1H-dibenzo[e]indocarbocyanine bromide] |  | 0.24 | − | + | ++ | +++
10 | COC(=O)CCCCN1C(=CC=CC2=[N+](CCCCC(=O)OC)c3ccc4ccccc4c3C2(C)C)C(C)(C)c2c1ccc1ccccc21.[Br-] [Dye 3i, 3,3′-Di-(4-methoxycarbonylbutyl)-1,1,1′,1′-tetramethyl-1H-dibenzo[e]indocarbocyanine bromide] |  | 0.40 | − | + | + | ++
11 | COC(=O)CCCCCCCCCN1C(=CC=CC2=[N+](CCCCCCCCCC(=O)OC)c3ccc4ccccc4c3C2(C)C)C(C)(C)c2c1ccc1ccccc21.[Br-] [Dye 3j, 3,3′-Di-(9-methoxycarbonylnonyl)-1,1,1′,1′-tetramethyl-1H-dibenzo[e]indocarbocyanine bromide] |  | 0.47 | − | − | + | ++
12 | COC(=O)CCCCCCCCCCN1C(=CC=CC2=[N+](CCCCCCCCCCC(=O)OC)c3ccc4ccccc4c3C2(C)C)C(C)(C)c2c1ccc1ccccc21.[Br-] [Dye 3k, 3,3′-Di-(10-methoxycarbonyldecyl)-1,1,1′,1′-tetramethyl-1H-dibenzo[e]indocarbocyanine bromide] |  | 0.36 | − | − | + | ++
13 | CCOC(=O)CCN1C(=CC=CC2=[N+](CCC(=O)OCC)c3ccc4ccccc4c3C2(C)C)C(C)(C)c2c1ccc1ccccc21.[Br-] [Dye 3l, 3,3′-Di-(2-ethoxycarbonylethyl)-1,1,1′,1′-tetramethyl-1H-dibenzo[e]indocarbocyanine bromide] |  | 0.33 | − | + | +++ | +++
14 | CCOC(=O)CCCN1C(=CC=CC2=[N+](CCCC(=O)OCC)c3ccc4ccccc4c3C2(C)C)C(C)(C)c2c1ccc1ccccc21.[Br-] [Dye 3m, 3,3′-Di-(3-ethoxycarbonylpropyl)-1,1,1′,1′-tetramethyl-1H-dibenzo[e]indocarbocyanine bromide] |  | 0.61 | − | − | ++ | +++
15 | CCOC(=O)CCCCN1C(=CC=CC2=[N+](CCCCC(=O)OCC)c3ccc4ccccc4c3C2(C)C)C(C)(C)c2c1ccc1ccccc21.[Br-] [Dye 3n, 3,3′-Di-(4-ethoxycarbonylbutyl)-1,1,1′,1′-tetramethyl-1H-dibenzo[e]indocarbocyanine bromide] |  | 0.43 | − | − | + | ++
16 | CCOC(=O)CCCCCN1C(=CC=CC2=[N+](CCCCCC(=O)OCC)c3ccc4ccccc4c3C2(C)C)C(C)(C)c2c1ccc1ccccc21.[Br-] [Dye 3o, 3,3′-Di-(5-ethoxycarbonylpentyl)-1,1,1′,1′-tetramethyl-1H-dibenzo[e]indocarbocyanine bromide] |  | 0.36 | − | − | ++ | ++
17 | CCOC(=O)CCCCCCN1C(=CC=CC2=[N+](CCCCCCC(=O)OCC)c3ccc4ccccc4c3C2(C)C)C(C)(C)c2c1ccc1ccccc21.[Br-] [Dye 3p, 3,3′-Di-(6-ethoxycarbonylhexyl)-1,1,1′,1′-tetramethyl-1H-dibenzo[e]indocarbocyanine bromide] |  | 0.35 |  |  |  | 
